Assay results reported in patent US12606798B2, “Methods and materials for hematoendothelial differentiation of human pluripotent stem cells under defined conditions” (WISCONSIN ALUMNI RESEARCH FOUNDATION, priority 2013, dated 2026).

Tests used:
Assay type in all cases: cell-based, human
[1] = tested on: H1 hESCs; experiment: Hematopoietic differentiation of H1 hESCs in chemically defined conditions with TGFβ inhibitor, flow cytometry
Protocol: (§1) Human pluripotent stem cells were detached from vitronectin or matrigel when they reached 80% confluency using 1× TrypLE (Life Technologies) and plated at an optimized density ranging from 5000 cells/cm^2 to 15,000 cells/cm^2 depending on the cell line onto 6-well plates coated with 0.5 μg/cm^2 of ColIV (Sigma-Aldrich) or 0.5 μg/cm^2 Tenascin-C (Millipore) in E8 media supplemented with 10 μM Rho Kinase inhibitor (Tocris Y-27632). After 24 hours (day 0), the media was changed to IF9S media supplemented with 50 ng/ml BMP4 (Peprotech), 15 ng/ml Activin A (Peprotech), 50 ng/ml FGF2 (Miltenyi Biotech), 2 mM LiCl (Sigma), and on occasion, 1 μM Rho Kinase inhibitor to increase cell viability. On day 2, the media was changed to IF9S media supplemented with 50 ng/ml FGF2 and 50 ng/ml VEGF, and 10 μM SB-431542 (Tocris) where mentioned. On day 4, the media was changed to IF9S media supplemented with 50 ng/ml FGF2, VEGF, TPO, SCF, IL-6, and 10 ng/ml IL-3. On day 6, additional IF9S media supplemented with the same 6 factors were added to the cultures without aspirating the old media (Table 3 Table 3). IF9S (IMDM/F12 with 9 supplements) was made in-house with the following: 50% IMDM 50% F12 (Life Technologies) supplemented with 64 mg/L L-ascorbic Acid 2-Phosphate Mg2+ salt (Sigma-Aldrich), 40 ul/L monothioglycerol (Sigma-Aldrich), 8.4 μg/L additional sodium selenite (Sigma-Aldrich), 10 mg/L polyvinyl alcohol (Sigma-Alderich), 1× glutamax (Life Technologies), 1× non-essential amino acids (Life Technologies), 0.1× chemically defined lipid concentrate (Life Technologies), 10.6 mg/L Holo-Transferrin (Sigma-Aldrich), and 20 mg/L Insulin (Sigma-Aldrich) (Table 2). Differentiation was conducted in hypoxic condition from day 0 to day 5, and transferred to normoxic condition from day 6 to day 9 (FIG. 1). The 1× TrypLE was used to dissociate and collect cells for analysis. Flow Cytometry was conducted using the using a FACSCalibur flow cytometer and following antibodies: CD31-FITC (clone WM59), CD34-FITC (8G12), CD41a-FITC/APC (clone HIPS), CD43-FITC/PE/APC (clone 1G10), CD45-APC (clone HI30), CD73-FITC/PE (clone AD2), CD144-FITC/PE/AlexaFluor647 (clone 55-7H1), CD235a-FITC/PE/APC (clone GA-R2), KDR-PE/AlexaFluor647 (clone 89106), PDGFRα-PE (clone aR1) (BD Biosciences), TRA-1-85-FITC/PE (clone TRA-1-85), and APLNR-APC (clone 72133) (R&D Systems). Sorting was conducted on a FACS Aria, as described previously 46. The purity of isolated populations was 92-95%. Recent studies have shown that adding TGF-β inhibitors after mesoderm specification but before endothelial development increases definitive hematopoietic differentiation.

[2] = tested on: hESCs; experiment: hPSC hematoendothelial differentiation on ColIV vs TenC in chemically defined conditions, flow cytometry
Protocol: as §1, with “analysis.” for “analysis. Flow Cytometry was conducted using the using a FACSCalibur flow cytometer and following antibodies: CD31-FITC (clone WM59), CD34-FITC (8G12), CD41a-FITC/APC (clone HIPS), CD43-FITC/PE/APC (clone 1G10), CD45-APC (clone HI30), CD73-FITC/PE (clone AD2), CD144-FITC/PE/AlexaFluor647 (clone 55-7H1), CD235a-FITC/PE/APC (clone GA-R2), KDR-PE/AlexaFluor647 (clone 89106), PDGFRα-PE (clone aR1) (BD Biosciences), TRA-1-85-FITC/PE (clone TRA-1-85), and APLNR-APC (clone 72133) (R&D Systems). Sorting was conducted on a FACS Aria, as described previously 46. The purity of isolated populations was 92-95%. Recent studies have shown that adding TGF-β inhibitors after mesoderm specification but before endothelial development increases definitive hematopoietic differentiation.”
Flow Cytometry was conducted using the using a FACSCalibur flow cytometer and following antibodies: CD31-FITC (clone WM59), CD34-FITC (8G12), CD41a-FITC/APC (clone HIPS), CD43-FITC/PE/APC (clone 1G10), CD45-APC (clone HI30), CD73-FITC/PE (clone AD2), CD144-FITC/PE/AlexaFluor647 (clone 55-7H1), CD235a-FITC/PE/APC (clone GA-R2), KDR-PE/AlexaFluor647 (clone 89106), PDGFRα-PE (clone aR1) (BD Biosciences), TRA-1-85-FITC/PE (clone TRA-1-85), and APLNR-APC (clone 72133) (R&D Systems). Sorting was conducted on a FACS Aria, as described previously 46. The purity of isolated populations was 92-95%.

[3] = tested on: hESCs; experiment: Mesenchymo- (MB) and hemangioblast (HB) colony assay; settings: day 2 and day 3 cultures; TenC compared with ColIV
Protocol: MB and HB were detected using serum-free CFC medium supplemented with FGF2 assay as previously described^11. Day 2 or 3 cultures were dissociated and prepared in a single-cell suspension using 1× TrypLE (Life Technologies) and 5,000 cells of the total culture were plated into the CFC media. MB and HB colonies were scored 12 days after plating the single-cell suspension.

[4] = tested on: hESCs; experiment: Hematopoietic CFC assay; settings: day 8, TenC compared with ColIV
Protocol: Hematopoietic CFC were detected using serum-containing H4436 Methocult™ supplemented with human recombinant SCF, G-CSF, GM-CSF, IL-3, IL-6, and EPO (Stem Cell Technologies). Hematopoietic potential of AHPs was evaluated using serum-free SF H4236 methocult with added FGF2 (20 ng/ml), SCF (20 ng/mL), IL3 (10 ng/mL), IL6 (10 ng/mL), and EPO (2 U/mL) (Stem Cell Technologies) as previously described^6. 1000-10000 differentiated cells were plated into the CFC medium and the colonies were scored after 14 days of culture.

[5] = tested on: CD43+ cells collected from H1 hESCs; experiment: T-cell differentiation of day 9 cultures on OP9-DLL4; settings: CD43+ cells from day 9 cultures on the matrix, OP9-DLL4 coculture
Protocol: An OP9 cell line (OP9-DLL4) constitutively expressing human delta-like ligand 4 (DLL4) was established by our lab using lentivirus and was maintained similarly to OP9. After human pluripotent stem cells were differentiated for 9 days, the floating cells were collected, strained through a 70 μm cell strainer (BD Biosciences) and washed. Then, they were resuspended in T-cell differentiation media consisting of α-MEM (Gibco) supplemented with 20% FBS (Hyclone) supplemented with IL7 (5 ng/ml), Flt3L (5 ng/ml) and SCF ([…]). Then, they were plated on an OP9-DLL4 and cultured at 37° C. and 5% CO2. After 4 days, the cells were harvested using collagenase IV (Gibco) solution (1 mg/ml in DMEM/F12, Gibco) and 1× TrypLE (Invitrogen), and passaged onto a fresh layer of OP9-DLL4. After 3 days, the cells are passaged again. Subsequent passages are conducted every 7 days up to 4 weeks, after which the floating cells are collected for flow analysis and genomic DNA extraction for TCR rearrangement assay.

Row | Compound | development of PDGFRalpha-positive mesoderm cells ([1]; 10 μM added from day 2 to day 4, read on day 3) | CD31+ differentiation ([1]; 10 μM added from day 2 to day 4, read on day 4) | CD43+ population ([1]; 10 μM added from day 2 to day 4, read on day 9) | CD43+ hematopoietic progenitors ([1]; added from day 2 to day 4 only, day 8) | endothelial progenitors ([1]; added from day 2 to day 4 only, days 4 and 5) | hematopoietic differentiation potential of CB hiPSCs ([2]; cord blood mononuclear cell-derived hiPSCs) | percentage of KDRhiAPLNR+PDGFRalphalo/− HVMPs cells ([2]; day 4, TenC compared with ColIV) | population of total CD144+ cells (HEPs, non-HEPs, AHPs) ([2]; day 5, compared to cultures differentiated on ColIV) | CD43+ hematopoietic progenitors expansion ([2]; day 8, TenC compared to ColIV) | APLNR+PDGFRalpha+ cells ([2]; days 2 and 3, TenC compared with ColIV) | MB and HB colonies [3] | GEMNI-CFC potential of cultures [4] | CFC potential of cultures ([4]; 3 experiments, p<0.01) | capacity of CD43+ cells to generate CD5+CD7+ lymphoid progenitors [5] | progression toward CD4+CD8+ T lymphoid cells ([5]; week 3)
1 | NC(=O)c1ccc(-c2nc(-c3ccc4c(c3)OCO4)c(-c3ccccn3)[nH]2)cc1 [SB-431542] | significantly decreases | increases | continues to increase | significant increase | increases |  |  |  |  |  |  |  |  |  | 
2 | TenC: human Tenascin C extracellular matrix protein (GenBank CAA55309.1; Millipore CC065) used as culture substrate |  |  |  |  |  | restored hematopoietic differentiation potential of CB hiPSCs to the level seen with hESCs and FB hiPSCs | consistently higher | larger population | expanded significantly more | significantly higher | significantly higher | significantly greater | higher CFC potential | had a capacity | observed only from CD43^+ cells generated on TenC
